Results reported in US9783785B2, “Screening methods for detection of susceptibility to leukemia and lymphomas” (priority 2010, dated 2017).

Tests used:
[1] = system: mononuclear cells from "normal"/sickle cell patients (controls); test: cell surface phenotyping by flow cytometry, control cells; format: cell-based, human; conditions: compared to media only, days 1-4
Procedure: (§1) Subject to parental/patient consent, approximately 15 ml of blood was obtained from leukemic patients in remission, long-term survivors of acute lymphoblastic leukemia and normal volunteers. Additional “normal” control samples were collected from the first drawing of blood in sickle cell patients undergoing manual partial exchange transfusion, or samples of blood discarded by the blood bank from normal donors. Patient blood was placed into heparin (1000 USP u/ml). Peripheral blood mononuclear cells (PBMC) were isolated by density gradient centrifugation (400×g, 40 minutes, and 18° C.) with Ficoll Paque Plus (GE Healthcare, Amersham Biosciences; Uppsala, Sweden), followed by washing with phosphate-buffered saline. Plasma was also collected simultaneously and stored at −80° C. until use. […]
(§2) Frozen specimens were thawed in a 37° C. water bath with continuous agitation. […] These cells (frozen/thawed PBMC) were then assessed for viability by trypan blue dye exclusion, counted, and re-suspended in the medium for assay. […]
(§3) At time intervals of 24, 48, 72 and 96 hrs, cell surface phenotyping was performed by flow cytometry. […] Acquisition and Analysis was carried out on fluorescence activated cell sorting (FACS) BD FACS Canto II using FACSDiva v 6.1.2. […] Percentage of cells positive for CD10CD19, CD34CD19 and CD34CD117 were recorded.

[2] = system: mononuclear leukocytes of long-term survivors of acute lymphoblastic leukemia (ALL); test: cell surface phenotyping by flow cytometry, cells of ALL patients; format: cell-based, human; conditions: cells of leukemic patients in remission/long-term ALL survivors; compared to media only; days 1-4
Procedure: as §1, §2, §3

With Aflotoxin B1 [aflotoxin (AT)] the “development of cell surface phenotypes characteristic of ALL (CD10/CD19, CD34/CD19, CD34/CD117)” value [1] was “indiscriminately induced increased development” and the “development of cell surface phenotypes characteristic of ALL (CD10/CD19, CD34/CD19, CD34/CD117)” value [2] was “indiscriminately induced increased development”.
